Data on six compounds can be found in US20250154525A1, “PLANT VIRUS MOVEMENT PROTEINS AND METHODS OF USING SAME” (Molecular Transfer, Inc., priority 2016, published 2025).

In test [1] the test system is Human Primary Fibroblast Cells. The test is described as follows: GFP plasmid transfection with DOTMA/DOPE plus plant virus movement protein derived peptides (Example 2). It counts as cell-based. Particulars: 42 hours. As to the method:
(§1) Cells were plated to so that on the day of transfection the cells were 70% confluent in 96 well tissue culture plates. A DOMTA/DOPE Lipid solution (1:1 molar ratio) at 2 mg/mL in water were mixed with an equal volume of plant virus movement protein derived peptides that had the nucleic acid binding moiety RRRRRRRRRRRR (SEQ ID NO:109) or KKKKKKKKKKKKKKKK (SEQ ID NO: 102) covalently linked to the N-terminus, or C-terminus of each peptide during peptide synthesis. Peptides were at 2 mg/mL in water. The DOTMA/DOPE and the plant virus movement peptide solution the was diluted 1 to 1 (v/v) in water. DOMTA/DOPE/PEPTIDE solutions were added to 0.1 mL of a plasmid DNA solution (EF1Alpha eGFP plasmid) at 10 μg/mL in OptiMEM.
(§2) All solutions were at room temperature. A volume of 0.2 mL of a 10 μg/mL solution of DNA was aliquoted into each well of a non-tissue cultured treated plate. 1-6 μL of transfection reagents were added to DNA solutions respectively. The transfection reagent and DNA solution was mixed by pipetting up and down twice. Transfection complexes were formed for 10 minutes. After 10 minutes, 0.01 or 0.02 mL of the transfection complex was added to cells. HuVEC, HeLa, human adult keratinocytes, human primary adult fibroblast, and A549 cells all respectively received 0.01 mL of the transfection complex. Human skeletal muscle cells, mouse C2C12 cells, and Jurkat, cells received 0.02 mL of the transfection complex. Cells were incubated for 42 hours at 37° C. at 5% CO2. Plates were read on a fluorescent plate reader. Cells were also examined visually under a microscope to assess the extent of transfection (in terms of the percent of cells transfected) with a fluorescent microscope. Other modes of analysis, for example quantification with B-galactosidase or luciferase reports plasmids can also be used.

Test [2] has as its system HuVec Cells. Described as above. It counts as cell-based. Particulars: 42 hours. As to the method:
as §1, §2

The subject of test [3] is HeLa Cells. The description is as above. It counts as cell-based. The settings on record: 1-6 μL of transfection reagents. On the procedure:
as §1, §2

The subject of test [4] is C2C12 Cells. The test is described as follows: GFP plasmid transfection with DOTMA/DOPE plus surface ligand peptide, fluorescent plate reader (Example 1). Particulars: DOTMA/DOPE + peptide linked to R12 or K16; EF1Alpha eGFP plasmid; 42 hours. It counts as cell-based, mouse. The gist of the method:
(§3)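 DOTMA/DOPE (1:1 molar) plus peptide bearing a poly-Arg or poly-Lys tag was complexed 10 min with EF1alpha eGFP plasmid in OptiMEM, then added to 70%-confluent cells (0.01 mL fibroblasts; 0.02 mL C2C12, Jurkat). After 42 h at 37 °C, GFP was read by plate reader and compared with DOTMA without ligand.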

Test [5] concerns Jurkat Cells. The description is as above. It counts as cell-based. The settings on record: DOTMA/DOPE + peptide linked to R12 or K16; EF1Alpha eGFP plasmid; 42 hours. Summed up: as §3
Test [6] has as its system HuVec Cells. The description is as above. It counts as cell-based. The settings on record: DOTMA/DOPE + peptide linked to R12 or K16; EF1Alpha eGFP plasmid; 42 hours. Summed up:
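HuVEC cells in 96 well plates at 70% confluence were transfected with EF1Alpha eGFP plasmid using a 1:1 molar DOTMA/DOPE lipid mixed with a surface ligand peptide carrying a covalently attached nucleic acid binding moiety. Complexes formed for 10 minutes, 0.01 mL went to each well, cells were incubated 42 hours at 37° C., and fluorescence was read on a plate reader.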

In test [7] the test system is Human Fibroblast Cells. The test is described as above. It counts as cell-based. The settings on record: DOTMA/DOPE + peptide linked to R12 or K16; EF1Alpha eGFP plasmid; 42 hours. Summed up:
as §3

Test [8] has as its system NL-1 iPS Cells. The description is as above. It counts as cell-based. Particulars: DOTMA/DOPE + peptide linked to R12 or K16; EF1Alpha eGFP plasmid; 42 hours.
Test [9] relates to HeLa Cells. The description is as above. It counts as cell-based. The settings on record: DOTMA/DOPE + peptide linked to R12 or K16; EF1Alpha eGFP plasmid; 42 hours.
Test [10] relates to HeLa Cells. In words: GFP transfection with DOTMA/SEQ ID NO: 72 (fusogenic peptide)/peptide compared with Lipofectamine 2000. It counts as cell-based. Summed up: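 DOTMA/DOPE (1:1 molar) lipid mixed with polyarginine- or polylysine-tagged cell-surface-ligand peptide, complexed 10 min with EF1alpha eGFP plasmid at 10 μg/mL in OptiMEM, fusogenic peptide at 0.1 mg/mL final; HeLa cells ~70% confluent given 0.01 mL complex. GFP read by fluorescence plate reader and microscopy (% cells transfected) after 42 h at 37° C; Lipofectamine 2000 as comparator.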

Test [11] has as its system some examined cell types. In words: Summary of Example 1: transfection expression and % cells transfected over the no peptide control. It counts as cell-based. The settings on record: on some examined cell types. The gist of the method:
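Cells at 70% confluence received DNA complexes of EF1Alpha eGFP plasmid with DOTMA/DOPE (1:1) plus oligo-Arg- or oligo-Lys-tagged peptide ligands, formed 10 min at room temperature. After 42 h at 37 °C, 5% CO2, GFP read by plate reader and % transfected cells judged microscopically, relative to lipid without peptide.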

Where [12] appears, read: value column 1 of 6, head not given, 1 µL transfection reagent.
Setting [13] is: value column 3 of 6, head not given, 3 µL transfection reagent.
[14] abbreviates: value column 4 of 6, head not given, 4 µL transfection reagent.
[15] abbreviates: 0.1 μL of DOTMA/SEQ ID NO: 72/Peptide in well of a 96 well plate.
Setting [16] is: 0.2 μL of DOTMA/SEQ ID NO: 72/Peptide in well of a 96 well plate.
The mark [17] stands for this setting: 0.3 μL of DOTMA/SEQ ID NO: 72/Peptide in well of a 96 well plate.
Where [18] appears, read: 0.4 μL of DOTMA/SEQ ID NO: 72/Peptide in well of a 96 well plate.

Consider “543 (RRRRRRRRRRRRVDFSHVDYGKWERKPIRCASMSRLGLRG) [compound 543]”, for which the “Relative Fluorescence of Transfection of Human Primary Fibroblast Cells” value in [1] (Transfection Agent 1 μl) worked out at 30416 Rf; in test [1] (Transfection Agent 1.5 μl), 45401 Rf; in test [1] (Transfection Agent 2 μl), 39786 Rf; in test [1] (Transfection Agent 3 μl) it was 33091 Rf; in test [1] (Transfection Agent 4 μl) it was 28648 Rf; in test [1] (Transfection Agent 6 μl), 28698 Rf. The “Relative Fluorescence of Transfection of HuVEC Cells” value is 26622 Rf in [2] (Transfection Agent 1 μl); 36742 Rf in test [2] (Transfection Agent 1.5 μl); 42802 Rf in test [2] (Transfection Agent 2 μl); 40584 Rf in [2] (Transfection Agent 3 μl); 32754 Rf in test [2] (Transfection Agent 4 μl); 25492 Rf in [2] (Transfection Agent 6 μl). Further, the “Relative Fluorescence of Transfection of Hela Cells” value amounted to 42502 in test [3] (2 µL transfection reagent); 13793 in [3] (5 µL transfection reagent); 12174 in [3] (setting [12]); 38779 in test [3] (setting [13]); 28451 in [3] (setting [14]).
Consider `CCCCCCCC/C=C\CCCCCCCCOCC(C[N+](C)(C)C)OCCCCCCCC/C=C\CCCCCCCC.[Cl-]` (stereo not drawn) [DOTMA, N-[1-(2,3-dioleyloxy)propyl]-N,N,N-trimethylammonium chloride, reference compound], for which, in test [4], the “Relative Fluorescence of Transfection of C2C12 Cells (RF)” value was 1289. Also, in test [5], the “Relative Fluorescence of Transfection of Jurkat Cells (RF)” value turned out to be 9084. Further, in test [6], the “Relative Fluorescence of Transfection of HuVec Cells (RF)” value worked out at 12230. In addition, the “Relative Fluorescence of Transfection of Human Fibroblast Cells (RF)” value in test [7] was 3397. For the same compound, the “Relative Fluorescence of Transfection of NL-1 iPS Cells (RF)” value in test [8] was 8965. Further, the “Relative Fluorescence of Transfection of HeLa Cells (RF)” value in test [9] amounted to 7551. The “Relative Fluorescence of Transfection of Hela Cells” value in test [3] (2 µL transfection reagent) was found to be 4782; in test [3] (5 µL transfection reagent), 9694; in [3] (setting [12]) it was 4424; in test [3] (setting [13]) it was 5377; in test [3] (setting [14]), 6992.
Take 454 (TGLSCLQRFTTM) [compound 454]: in test [4], the “Relative Fluorescence of Transfection of C2C12 Cells (RF)” value is listed as 9280. Further, the “Relative Fluorescence of Transfection of Jurkat Cells (RF)” value in test [5] amounted to 8224. Also, the “Relative Fluorescence of Transfection of HuVec Cells (RF)” value in [6] is 13336. Further, the “Relative Fluorescence of Transfection of Human Fibroblast Cells (RF)” value in [7] is 7568. Moreover, the “Relative Fluorescence of Transfection of NL-1 iPS Cells (RF)” value in [8] stood at 18100. For the same compound, the “Relative Fluorescence of Transfection of HeLa Cells (RF)” value in test [9] was determined as 34550. Further, the “Relative Fluorescence DOTMA/SEQ ID NO: 72/Peptide, HeLa Cells (RF)” value (from here on “Relative Fluorescence DOTMA/SEQ ID NO”) turned out to be 34033 in test [10] (setting [15]), 37099 in [10] (setting [16]), 27412 in test [10] (setting [17]) and 16023 in test [10] (setting [18]). Also, the “transfection expression and % cells transfected over the no peptide control” value in [11] is “increased transfection expression and the % cells transfected”.
As for 450 (TAGSCLRKFSCL) [compound 450], the “Relative Fluorescence of Transfection of C2C12 Cells (RF)” value in [4] is 3795. Also, the “Relative Fluorescence of Transfection of Jurkat Cells (RF)” value in test [5] stood at 8779. In addition, the “Relative Fluorescence of Transfection of HuVec Cells (RF)” value in test [6] is given as 20911. For the same compound, in test [7], the “Relative Fluorescence of Transfection of Human Fibroblast Cells (RF)” value is 6996. Also, the “Relative Fluorescence of Transfection of NL-1 iPS Cells (RF)” value in test [8] came out at 29856. Moreover, the “Relative Fluorescence of Transfection of HeLa Cells (RF)” value in test [9] worked out at 21045. Also, the “Relative Fluorescence DOTMA/SEQ ID NO” value in test [10] (setting [15]) came to 11962; in test [10] (setting [16]) it was 17346; in test [10] (setting [17]) it was 12553; in [10] (setting [18]) it was 10241. Further, in test [11], the “transfection expression and % cells transfected over the no peptide control” value is “increased transfection expression and the % cells transfected”.
Take 350 (SIGFRGDGQTC) [compound 350]: in test [4], the “Relative Fluorescence of Transfection of C2C12 Cells (RF)” value is given as 2631. In test [5], the “Relative Fluorescence of Transfection of Jurkat Cells (RF)” value was determined as 9184. The “Relative Fluorescence of Transfection of HuVec Cells (RF)” value in test [6] was determined as 13163. Also, the “Relative Fluorescence of Transfection of Human Fibroblast Cells (RF)” value in [7] amounted to 7105. Besides, the “Relative Fluorescence of Transfection of NL-1 iPS Cells (RF)” value in test [8] is given as 19132. In addition, the “Relative Fluorescence of Transfection of HeLa Cells (RF)” value in test [9] was determined as 13313. The “Relative Fluorescence DOTMA/SEQ ID NO” value in test [10] (setting [15]) came out at 24092; in test [10] (setting [16]), 23238; in [10] (setting [17]), 19802; in [10] (setting [18]) it was 22255. In addition, the “transfection expression and % cells transfected over the no peptide control” value in [11] is “increased transfection expression and the % cells transfected”.
In the case of 344 (KGHRGF) [compound 344], the “Relative Fluorescence of Transfection of C2C12 Cells (RF)” value in test [4] was found to be 1678. Also, in test [5], the “Relative Fluorescence of Transfection of Jurkat Cells (RF)” value amounted to 10160. The “Relative Fluorescence of Transfection of HuVec Cells (RF)” value in test [6] is reported as 11867. For the same compound, the “Relative Fluorescence of Transfection of Human Fibroblast Cells (RF)” value in test [7] is 12704. Also, in test [8], the “Relative Fluorescence of Transfection of NL-1 iPS Cells (RF)” value is reported as 10895. For the same compound, the “Relative Fluorescence of Transfection of HeLa Cells (RF)” value in test [9] is 14415. Besides, the “Relative Fluorescence DOTMA/SEQ ID NO” value in [10] (setting [15]) worked out at 13315; in [10] (setting [16]), 16387; in test [10] (setting [17]), 12564; in [10] (setting [18]) it was 12511. Besides, the “transfection expression and % cells transfected over the no peptide control” value in test [11] is “increased transfection expression and the % cells transfected”.
